Measurements published in the NIST ThermoML archive (doi:10.1016/j.jct.2016.12.030).
Numbers after ± are expanded uncertainties.

Details: Crystal; DTA

Row | Normal melting temperature | Structure (SMILES)
1 | 0.00 ± 0.5 °C | O [water]
2 | -95.76 ± 0.5 °C | CCCCCC [hexane]

Row | Structure (SMILES) | Normal melting temperature
3 | [Hg] [mercury] | -38.86 ± 0.5 °C
